In patent US9056923B2, “Mimetic peptides derived from collagen type IV and their use for treating angiogenesis- and lymphagiogenesis-dependent diseases” (THE JOHNS HOPKINS UNIVERSITY, priority 2010, dated 2015):
Square brackets hold non-standard residues; d marks the D form. Ends that are not written are not given here. Peptide text beside a SMILES is read from it. AllylGly = C=CC[C@H](N)C(=O)O; Nle = CCCC[C@H](N)C(=O)O; Abu = CC[C@H](N)C(=O)O

How the values were obtained:
Format in all cases: cell-based, human
HUVEC [1] = test: HUVEC migration assay (RT-CIM); conditions: for Migration Inhibition (50 uM): 50 uM peptide; for Activity in Migration: Yes/No summary, active = inhibitory potential greater than 30%
Experimental: The inhibitory potential of the peptides was measured using a real time migration assay system based on electrical impedance (RT-CIM, ACEA Biosciences, CA). CIM 16 well plates (Roche, 05665817001) are composed of a top and bottom chamber separated by a microporous (8 μm) polycarbonate membrane. The membrane was coated with fibronectin (20 μg/mL), and 45,000 cells/well in serum free media with or without peptides were added to the top compartment. Media with chemoattractant (i.e., fully supplemented EBM-2) was added to the bottom compartment of the chamber and the plate was incubated at 37° C. for 20 hours. The sensors integrated on the bottom side of the membrane monitor and continuously record changes in impedance as the cells move through the membrane. The RT-CIM technology allows for easy quantification of cell migration by monitoring the cell index derived from the measured impedances. Assays were performed in at least two independent replicates and each replicate was performed using two experimental duplicates.

HUVEC [2] = test: HUVEC tube formation assay on Matrigel; conditions: for Tube formation Inhibition (100 uM): 100 uM peptide; for Activity in Tube formation: Yes/No summary
Experimental: The compounds also were tested for their ability to inhibit tube formation, a process critical in angiogenesis. Endothelial cells spontaneously form a network of tubes when plated on extracts of extracellular matrix. This in vitro assay combines aspects of adhesion and migration and it is routinely used in angiogenesis research (Oliveira-Ferrer et al., 2008). The ability to inhibit tube formation is a comprehensive assessment of the anti-angiogenic potential. The protocol was described by Arnaoutova et al. (2009) and it consists of plating HUVEC on top of basement membrane extract and after incubation at 37° C. the cells naturally rearrange themselves in a network of tubes. Thus, 50 μL/well of Matrigel (BD Biosciences, San Jose, Calif.) was plated in a cold 96 well plate and incubated at 37° C. for 30 min for polymerization. 15,000 cells/well were added to the top of the gel and incubated in complete media in the presence or absence of peptide for 19 hours. Images were captured using the CCD Sensicam mounted on a Nikon microscope (Eclipse T-100). Assays were performed in at least two independent replicates and each replicate was performed using three experimental replicates and one image of a randomly chosen field was acquired per well.

HUVEC [3] = conditions: for Activity in Proliferation / Proliferation Inhibition (IC50 in uM) / inhibition of proliferation: HUVEC; for Activity in Proliferation: Yes/No summary; for Proliferation Inhibition (IC50 in uM): summary tables 2-4, 6, 7
Experimental: Several assays were used to test the peptides discussed in the Examples herein. A colorimetric based proliferation assay using WST-1 (Roche, 11644807001) proliferation reagent was carried out using HUVEC cells. 2000 cells/well were plated in 96-well plates and allowed to adhere overnight. On the following day, the media was exchanged with fully supplemented media containing peptides or equivalent DMSO vehicle for the controls. Three days later the media containing the peptides was replaced with serum-free EBM-2 media containing WST-1 reagent and the plates were incubated for four hours as per the manufacturer's recommendations. Changes in color, due to the formazan dye resulted from the cleavage of the tetrazolium salt WST-1 by the mitochondrial succinate-tetrazolium reductase, were read on a Victor V fluorescence plate reader (Perkin Elmer, MA) by measuring the absorbance at 450 nm Dose response curves of percent live cells (in comparison to untreated cells but incubated in complete media with 0.2% DMSO) were created. Assays were performed in at least two independent replicates and each replicate was performed using three experimental triplicates.

HUVEC [4] = conditions: HUVEC; for Adhesion Inhibition (100 uM): 100 uM peptide; for Activity in Adhesion: Yes/No summary, active = inhibitory potential greater than 30%
Experimental: Similar to the migration assays, the inhibition activity of the peptide in cellular adhesion was assessed using the RT-CIM technology. In this case, 25,000 cells/well were plated in 16 wells E-plates (Roche, Basel Switzerland) in the presence or absence of the peptide. The adhesion was monitored over time (3 hours) by measuring changes in the electrical impedance, which is a direct measure of the cells adhering on the electrodes. […] Assays were performed in at least two independent replicates and each replicate was performed using two experimental duplicates.

Compound | Migration Inhibition (50 uM) (HUVEC [1]) | Activity in Migration (HUVEC [1]) | inhibition of migration (HUVEC [1]; concentration not given) | Tube formation Inhibition (100 uM) (HUVEC [2]) | Activity in Tube formation (HUVEC [2]) | IC50 (HUVEC [3]) [µM] | Activity in Proliferation (HUVEC [3]) | Proliferation Inhibition (IC50 in uM) (HUVEC [3]) | Adhesion Inhibition (100 uM) (HUVEC [4]) [%] | Activity in Adhesion (HUVEC [4]) | inhibition of adhesion (HUVEC [4]; concentration not given) | Migration Inhibition (5 uM) (HUVEC [1]; 5 uM peptide) [%] | inhibition of proliferation (HUVEC [3]) | inhibition of tube formation (HUVEC [2]; concentration not given) | migration inhibition (HUVEC [1]; concentration not given) [%] | adhesion inhibition (FIG. 16) (HUVEC [4]; concentration not given)
CCCC[C@H](NC(=O)[C@H](Cc1ccccc1)NC(=O)[C@@H]1CCCN1C(=O)[C@H](CCCC)NC(=O)[C@@H](NC(=O)[C@H](CO)NC(=O)[C@H](Cc1ccccc1)NC(=O)[C@H](CCCNC(=N)N)NC(=O)[C@H](CCCNC(=N)N)NC(=O)[C@@H](N)CC(C)C)[C@@H](C)O)C(=O)N[C@@H](Cc1ccccc1)C(=O)O [SP2014, LRRFSTNlePFNleF-OH] (H-LRRFST[Nle]PF[Nle]F-OH; N-terminus assumed) | Inactive | No | absence of activity | Inactive | No | > 100 | No | Inactive | 2.9 | No | absence of activity |  |  |  |  | 
C=CC[C@H](NC(=O)[C@H](Cc1ccccc1)NC(=O)[C@H](CCSC)NC(=O)[C@H](Cc1ccccc1)NC(=O)[C@@H]1CCCN1C(=O)[C@H](CCSC)NC(=O)[C@@H](NC(=O)[C@H](CO)NC(=O)[C@H](Cc1ccccc1)NC(=O)[C@H](CCCNC(=N)N)NC(=O)[C@H](CCCNC(=N)N)NC(=O)[C@@H](N)CC(C)C)[C@@H](C)O)C(=O)N[C@@H](CC(N)=O)C(=O)N[C@H](C(=O)N[C@@H](CC(N)=O)C(=O)N[C@@H](CC(N)=O)C(=O)N[C@H](C(=O)N[C@@H](CC=C)C(=O)N[C@@H](CC(N)=O)C(=O)N[C@@H](Cc1ccccc1)C(N)=O)C(C)C)[C@@H](C)CC [SP2026, LRRFSTMPFMF(AllyGly)NINNV(AllyGly)NF] (H-LRRFSTMPFMF[AllylGly]NINNV[AllylGly]NF-NH2; N-terminus assumed) |  | Yes |  | Complete | Yes | 8.23 | Yes |  | 96.61 | Yes |  | 11.43 | not affected |  |  | 
CC[C@H](NC(=O)[C@H](Cc1ccccc1)NC(=O)[C@H](CCSC)NC(=O)[C@H](Cc1ccccc1)NC(=O)[C@@H]1CCCN1C(=O)[C@H](CCSC)NC(=O)[C@@H](NC(=O)[C@H](CO)NC(=O)[C@H](Cc1ccccc1)NC(=O)[C@H](CCCNC(=N)N)NC(=O)[C@H](CCCNC(=N)N)NC(=O)[C@@H](N)CC(C)C)[C@@H](C)O)C(=O)N[C@@H](CC(N)=O)C(=O)N[C@H](C(=O)N[C@@H](CC(N)=O)C(=O)N[C@@H](CC(N)=O)C(N)=O)[C@@H](C)CC [SP2028, LRRFSTMPFMFAbuNINN] (H-LRRFSTMPFMF[Abu]NINN-NH2; N-terminus assumed) | 48.87% | Yes |  | Complete | Yes |  | Yes |  | 96.8 | Yes |  |  |  | Inhibition of tube formation |  | 
FTNINNVTN-NH2 [SP2031, FTNINNVTN] | 10.21% | Yes |  | Active | Yes |  | Yes |  | 85 | Yes |  |  | restored activity |  | > 50 | > 80
LNRFSTMPF [SP2013, LNRFSTMPF] | Inactive | No | absence of activity | Inactive | No | > 100 | No | Inactive | 0.3 | No | absence of activity |  |  |  |  | 
LRRFSTMP-NH2 [SP2008] | Inactive | No | absence of activity | Inactive | No |  | No | Inactive | −0.1 | No | absence of activity |  |  |  |  | 
LRRFSTMPFMF [SP2004, LRRFSTMPFMF] |  | No |  | Inactive | No | > 100 | No | Inactive |  | No |  |  | inactive |  |  | 
